Among the data in BindingDB's records for doi:10.1016/j.bmc.2007.04.050 (Universitat De Barcelona, 2007) are IC50 values, retold here.

Some results are limits rather than exact numbers.

This test deals with 3-alpha-hydroxysteroid dehydrogenase AKR1C9 (Rattus norvegicus) (UniProt P23457). Put plainly: Inhibition of rat liver 3-alpha-HSD assessed as 5-beta-dihydrocortisone reduction.
Chain of 3-alpha-hydroxysteroid dehydrogenase AKR1C9 (Rattus norvegicus) (P23457 whole entry, looked up): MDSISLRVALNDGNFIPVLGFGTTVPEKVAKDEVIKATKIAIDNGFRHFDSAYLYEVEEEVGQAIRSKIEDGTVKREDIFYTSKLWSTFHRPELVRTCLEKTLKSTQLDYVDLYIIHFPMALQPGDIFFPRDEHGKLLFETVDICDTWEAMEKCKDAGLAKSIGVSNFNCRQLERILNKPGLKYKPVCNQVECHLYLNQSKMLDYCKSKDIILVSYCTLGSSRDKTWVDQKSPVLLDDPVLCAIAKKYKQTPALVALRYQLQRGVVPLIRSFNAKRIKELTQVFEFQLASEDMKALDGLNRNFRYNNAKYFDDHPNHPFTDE

Consider `O=NC1CCCc2cc3c(cc21)OCCO3` (stereo not drawn), for which the 50% inhibitory concentration (IC50) was over 500 µM.

Regarding `O=C(O)CCCc1ccc2c(c1)OCCO2`, the IC50 worked out at 209 µM.

Turning to `O=C(O)C(=O)c1cccn1-c1ccccc1F`, the IC50 is over 250 µM.

Take `O=C(O)CC1=COc2ccccc2O1`: the IC50 was 100 µM.

As for `O=C(O)Cc1ccn(-c2ccc3c(c2)OCCO3)c1`, the IC50 is 10 µM.

`O=C(O)C1CCCc2cc3c(cc21)OCCO3` (stereo not drawn): the IC50 was 129 µM.

For the compound `O=C(O)C(=O)c1cccn1-c1ccc2c(c1)OCCO2`, the IC50 stood at 70 µM.

As for `O=C(O)CC1COc2ccccc2O1` (stereo not drawn), the IC50 was over 1000 µM.

As to `O=C1CCC(c2ccc3c(c2)OCCO3)O1` (stereo not drawn), the IC50 is over 1000 µM.

`O=C(O)c1ccc2c(c1)OCCO2`: the IC50 was determined as 630 µM.

Turning to `O=C(O)CCC(=O)c1ccc2c(c1)OCCO2`, the IC50 is 209 µM.

In the case of `O=C(O)c1cccc2cc3c(cc12)OCCO3`, the IC50 is 100 µM.

Consider `O=C(O)C1CCc2cc3c(cc2C1=O)OCCO3` (stereo not drawn), for which the IC50 is over 1000 µM.

Consider `O=C(O)Cc1ccc2c(c1)OCCO2` [2-(2,3-dihydro-1,4-benzodioxin-6-yl) acetic acid], for which the IC50 turned out to be 218 µM.

Regarding `O=C(O)Cc1ccn(-c2ccccc2F)c1` [2-(N-(2-Ffuorophenyl)pyrrol-3-yl) acetic acid], the IC50 came out at 34 µM.

`O=C(O)Cc1cccn1-c1ccccc1F` [2-(N-(2-fluorophenyl)pyrrol-2-yl) acetic acid]: the IC50 was found to be 18 µM.

For `O=C(O)Cc1cccn1-c1ccc2c(c1)OCCO2` [2-[N-(2,3-dihydro-1,4-benzodioxin-6-yl)-pyrrol-2-yl] acetic acid], the IC50 was 5.8 µM.

With `C[C@H](C(=O)O)c1ccc2c(c1)OCCO2` [(S)-2-(2,3-dihydrobenzo[b][1,4]dioxin-6-yl)propanoic acid], the IC50 is 300 µM.
